For assay [1], the target named is IDH1-R132C recombinant protein (Homo sapiens (Human), UniProt O75874, R132C). In words: IDH1-R132C enzymatic assay (inhibition of NADPH consumption, diaphorase/resazurin readout). The assay is classed as biochemical. To be noted: read-out: Enzyme IDH1 R132C IC50 (Range). The method in brief: (§1)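 Compound was preincubated 15 min at 25 °C with 30 nM IDH1-R132H or 10 nM IDH1-R132C in Tris pH 7.5 buffer with MgCl2, BSA and Triton X-100. Reaction with 2 mM α-ketoglutarate and 20 μM NADPH (solution concentrations) ran 45 min at 25 °C. Remaining NADPH was detected via diaphorase/resazurin fluorescence (ex 535/em 590 nm), and IC50 came from four-parameter fits.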
Background: The colour change of resazurin is a common sign of viable cells or microbes.

In assay [2] the target is IDH1-R132H recombinant protein (Homo sapiens (Human), UniProt O75874, R132H). In words: IDH1-R132H enzymatic assay (inhibition of NADPH consumption, diaphorase/resazurin readout). The assay is classed as biochemical. As to conditions: read-out: Enzyme IDH1 R132H IC50 (Range). A digest of the protocol: as §1
Assay [3] relates to HCT116 isogenic IDH1-R132H mutant cells. In words: Cellular 2-HG assay using HCT116 mutant IDH1 cells (R132H), RapidFire mass spectrometry. In kind it is cell-based. As to conditions: Homo sapiens, read-out: HCT116 IDH1 R132H IC50 (Range). As to the method: (§2) Example 106—Cellular 2-HG assay using HCT116 mutant IDH1 cells
(§3) HCT116 isogenic IDH1-R132H and IDH1-R132C mutant cells were cultured in growth media (McCoy's 5 A, 10% fetal bovine serum, 1× antibiotic-antimycotic solution and 0.3 mg/mL G418) in 5% CO2 in an incubator at 37° C. To prepare the assay, cells were trypsinized and resuspended in assay media (McCoy's 5 A with no L-glutamine, 10% fetal bovine serum, 1× antibiotic-antimycotic solution and 0.3 mg/mL G418). An aliquot of 10,000 cells/100 μL was transferred to each well of a clear 96-well tissue culture plate. The cells were incubated in 5% CO2 at 37° C. in an incubator overnight to allow for proper cell attachment. An aliquot of 50 μL of compound containing assay media were then added to each well and the assay plate was kept in 5% CO2 at 37° C. in an incubator for 24 hours. The media was then removed from each well and 150 μL of a methanol/water mixture (80/20 v/v) was added to each well. The plates were kept at −80° C. freezer overnight to allow for complete cell lysis. An aliquot of 125 μL of extracted supernatant was analyzed by RapidFire high-throughout-mass spectrometry (Agilent) to determine the cellular 2-HG level. The IC50 of a given compound was calculated by fitting the dose response curve of cellular 2-HG inhibition at a given concentration with the four parameter logistic equation.

In assay [4] the test system is HCT116 isogenic IDH1-R132C mutant cells. Kind of assay: Cellular 2-HG assay using HCT116 mutant IDH1 cells (R132C), RapidFire mass spectrometry. To be noted: Homo sapiens, read-out: HCT116 IDH1 R132C IC50 (Range). The assay is classed as cell-based. As to the method: as §2, §3
Setting [5] is: HCT-116, cellular 2-HG level, HCT116 IDH1-R132H cells, 24 hours.
The mark [6] stands for this setting: HCT-116, cellular 2-HG level, HCT116 IDH1-R132C cells, 24 hours.

Read-outs that look alike come from different tables or passages of the source. Some results are limits rather than exact numbers.

Sequence of IDH1-R132C recombinant protein (O75874 whole entry R132C): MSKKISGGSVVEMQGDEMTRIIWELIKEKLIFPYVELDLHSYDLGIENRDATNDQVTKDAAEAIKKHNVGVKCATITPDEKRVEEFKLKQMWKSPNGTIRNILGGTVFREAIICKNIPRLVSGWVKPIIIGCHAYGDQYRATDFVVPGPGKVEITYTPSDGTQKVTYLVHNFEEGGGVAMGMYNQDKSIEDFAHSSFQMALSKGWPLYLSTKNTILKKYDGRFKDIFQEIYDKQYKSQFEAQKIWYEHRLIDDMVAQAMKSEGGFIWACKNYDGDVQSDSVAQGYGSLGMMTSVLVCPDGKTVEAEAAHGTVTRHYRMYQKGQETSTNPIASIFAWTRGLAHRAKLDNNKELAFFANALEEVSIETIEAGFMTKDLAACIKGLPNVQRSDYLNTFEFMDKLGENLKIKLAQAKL
Sequence of IDH1-R132H recombinant protein (O75874 whole entry R132H): as the sequence (O75874 whole entry R132C) above, with C132H counted along it

The IC50 is the point on the concentration scale where inhibition reaches its midpoint. In the case of `C[C@H](Nc1nccc([S@+](C)[O-])n1)c1cc2cc(Cl)ccc2[nH]c1=O` [Compound I-113], the IC50 was 100 to 1000 nM in assay [1], under 100 nM in assay [2], under 100 nM in assay [3] (setting [5]) and 100 to 1000 nM in assay [4] (setting [6]).
In the case of `Cc1ncccc1-c1ccnc(N[C@@H](C)c2cc3cc(Cl)ccc3[nH]c2=O)n1` [Compound I-90], the IC50 in assay [1] lay in the range of 1000 to 10000 nM; in assay [2] it was 100 to 1000 nM; in assay [3] (setting [5]), 1000 to 10000 nM; in assay [4] (setting [6]) it was 1000 to 10000 nM.
For the compound `C[C@H](Nc1nccc(-c2cncn2CC2CC2)n1)c1cc2cc(Cl)ccc2[nH]c1=O` [Compound I-61], the IC50 in assay [1] is under 100 nM; in assay [2] it was under 100 nM; in assay [3] (setting [5]) it was 100 to 1000 nM; in assay [4] (setting [6]), 100 to 1000 nM.
As to `CC(=O)Nc1ccnc(NC(C)c2cc3cc(Cl)c(OCc4ccccn4)cc3[nH]c2=O)n1` (stereo not shown) [Compound I-149], the IC50 in assay [1], in assay [2], in assay [3] (setting [5]) and in assay [4] (setting [6]) was under 100 nM each time.
With `CC(C)n1cncc1-c1ccnc(N[C@@H](C)c2cc3cc(Cl)ccc3[nH]c2=O)n1` [Compound I-64, (S)-6-chloro-3-(1-((4-(1-isopropyl-1H-imidazol-5-yl)pyrimidin-2-yl)amino)ethyl) quinolin-2(1H)-one], the IC50 was 100 to 1000 nM in assay [1], under 100 nM in assay [2], 100 to 1000 nM in assay [3] (setting [5]) and 100 to 1000 nM in assay [4] (setting [6]).
Regarding `C[C@H](Nc1nccc(N2CCNC2=O)n1)c1cc2cc(Cl)ccc2[nH]c1=O` [Compound I-123, (S)-6-Chloro-3-(1-((4-(2-oxoimidazolidin-1-yl)pyrimidin-2-yl)amino)ethyl)quinolin-2(1H)-one], the IC50 in assay [1] is 100 to 1000 nM; in assay [2], under 100 nM; in assay [3] (setting [5]), 100 to 1000 nM; in assay [4] (setting [6]), 100 to 1000 nM.
As for `Cc1oncc1-c1ccnc(N[C@@H](C)c2cc3cc(Cl)ccc3[nH]c2=O)n1` [Compound I-58, (S)-6-Chloro-3-(1-((4-(5-methylisoxazol-4-yl)pyrimidin-2-yl)amino)ethyl)quinolin-2(1H)-one], the IC50 in assay [1] was 1000 to 10000 nM; in assay [2], under 100 nM; in assay [3] (setting [5]) it was 1000 to 10000 nM; in assay [4] (setting [6]), 1000 to 10000 nM.
For the compound `CC(=O)Nc1ccnc(N[C@@H](C)c2cc3cc(Cl)cc(F)c3[nH]c2=O)n1` [Compound I-160, (S)—N-(2-((1-(6-Chloro-8-fluoro-2-oxo-1,2-dihydroquinolin-3-yl)ethyl)amino)pyrimidin-4-yl)acetamide], the IC50 in assay [1], in assay [2], in assay [3] (setting [5]) and in assay [4] (setting [6]) was under 100 nM each time.
With `COc1cc2[nH]c(=O)c([C@H](C)Nc3ncc(C#N)c(OC)n3)cc2cc1Cl` [Compound I-143, (S)-2-((1-(6-Chloro-7-methoxy-2-oxo-1,2-dihydroquinolin-3-yl)ethyl)amino)-4-methoxypyrimidine-5-carbonitrile], the IC50 in assay [1] is under 100 nM; in assay [2] it was under 100 nM; in assay [3] (HCT-116, 24 h), under 100 nM; in assay [4] (HCT-116, 24 h), under 100 nM.
As for `C[C@H](Nc1nccc(-c2ccccc2)n1)c1cc2cc(Cl)ccc2[nH]c1=O` [Compound I-101], the 50% inhibitory concentration (IC50) was 100 to 1000 nM in assay [1], under 100 nM in assay [2], 100 to 1000 nM in assay [3] (setting [5]) and 100 to 1000 nM in assay [4] (setting [6]).
Regarding `C[C@H](Nc1nccc([S@@+](C)[O-])n1)c1cc2cc(Cl)ccc2[nH]c1=O` [Compound I-112], the IC50 lay in the range of 1000 to 10000 nM in assay [1], 100 to 1000 nM in assay [2], 100 to 1000 nM in assay [3] (setting [5]) and 1000 to 10000 nM in assay [4] (setting [6]).
For the compound `C[C@H](Nc1nccc(-c2cccnc2)n1)c1cc2cc(Cl)ccc2[nH]c1=O` [Compound I-94], the IC50 in assay [1] is 100 to 1000 nM; in assay [2] it was 100 to 1000 nM; in assay [3] (setting [5]) it was under 100 nM; in assay [4] (setting [6]), 1000 to 10000 nM.
As to `C[C@H](Nc1nccc(-c2cncn2C)n1)c1cc2cc(Cl)ccc2[nH]c1=O` [Compound I-71], the half-inhibitory concentration (IC50) was 100 to 1000 nM in assay [1], under 100 nM in assay [2], under 100 nM in assay [3] (setting [5]) and under 100 nM in assay [4] (setting [6]).
For the compound `C[C@H](Nc1nccc(-n2ccnc2)n1)c1cc2cc(Cl)ccc2[nH]c1=O` [Compound I-54], the IC50 is 1000 to 10000 nM in assay [1], 100 to 1000 nM in assay [2], 1000 to 10000 nM in assay [3] (setting [5]) and 1000 to 10000 nM in assay [4] (setting [6]).
As for `CC(C)Cn1cncc1-c1ccnc(N[C@@H](C)c2cc3cc(Cl)ccc3[nH]c2=O)n1` [Compound I-85], the IC50 in assay [1], in assay [2], in assay [3] (setting [5]) and in assay [4] (setting [6]) was 100 to 1000 nM each time.
Regarding `CC(C)CNC(=O)c1ccnc(N[C@@H](C)c2cc3cc(Cl)ccc3[nH]c2=O)n1` [Compound I-116], the IC50 in assay [1] lay within 100 to 1000 nM; in assay [2], 100 to 1000 nM; in assay [3] (setting [5]), 100 to 1000 nM; in assay [4] (setting [6]), 1000 to 10000 nM.
Take `COc1nc(N[C@@H](C)c2cc3cc(Cl)c(F)cc3[nH]c2=O)ncc1C#N` [Compound I-181]: the half-inhibitory concentration (IC50) in assay [1] is 100 to 1000 nM; in assay [2] it was under 100 nM; in assay [3] (HCT-116, 24 h), 100 to 1000 nM; in assay [4] (HCT-116, 24 h) it was 100 to 1000 nM.
As for `CC(=O)Nc1ccnc(N[C@@H](C)c2cc3cc(Cl)cnc3[nH]c2=O)n1` [Compound I-182], the half-maximal inhibitory concentration (IC50) was 100 to 1000 nM in assay [1], under 100 nM in assay [2], 100 to 1000 nM in assay [3] (setting [5]) and 100 to 1000 nM in assay [4] (setting [6]).
With `C[C@H](Nc1nccc(-c2cncc3ccccc23)n1)c1cc2cc(Cl)ccc2[nH]c1=O` [Compound I-92], the IC50 fell in the range of 100 to 1000 nM in assay [1], 100 to 1000 nM in assay [2], 100 to 1000 nM in assay [3] (setting [5]) and 1000 to 10000 nM in assay [4] (setting [6]).
As for `C[C@H](Nc1nccc(C(N)=O)n1)c1cc2cc(Cl)ccc2[nH]c1=O` [Compound I-114, (S)-2-((1-(6-chloro-2-oxo-1,2-dihydroquinolin-3-yl)ethyl)amino)pyrimidine-4-carboxamide], the IC50 was 100 to 1000 nM in assay [1], under 100 nM in assay [2], 100 to 1000 nM in assay [3] (setting [5]) and 100 to 1000 nM in assay [4] (setting [6]).
With `COc1nc(N[C@@H](C)c2cc3cc(Cl)cc(F)c3[nH]c2=O)ncc1C#N` [Compound I-161, (S)-2-((1-(6-Chloro-8-fluoro-2-oxo-1,2-dihydroquinolin-3-yl)ethyl)amino)-4-methoxy pyrimidine-5-carbonitrile], the IC50 in assay [1] is 100 to 1000 nM; in assay [2], under 100 nM; in assay [3] (setting [5]), under 100 nM; in assay [4] (setting [6]), 100 to 1000 nM.
Take `COc1nc(N[C@@H](C)c2cc3cc(Cl)c(O[C@H](C)c4ccccn4)cc3[nH]c2=O)ncc1C#N` [Compound I-158, 2-(((S)-1-(6-chloro-2-oxo-7-((R)-1-(pyridin-2-yl)ethoxy)-1,2-dihydroquinolin-3-yl)ethyl)amino)-4-methoxypyrimidine-5-carbonitrile]: the IC50 in assay [1] was under 100 nM; in assay [2] it was under 100 nM; in assay [3] (setting [5]) it was under 100 nM; in assay [4] (setting [6]), 100 to 1000 nM.
As for `COc1nc(N[C@@H](C)c2cc3cc(Cl)c(Br)cc3[nH]c2=O)ncc1C#N` [Compound I-162, (S)-2-((1-(7-bromo-6-chloro-2-oxo-1,2-dihydroquinolin-3-yl)ethyl)amino)-4-methoxypyrimidine-5-carbonitrile], the IC50 in assay [1] is 100 to 1000 nM; in assay [2], under 100 nM; in assay [3] (setting [5]) it was under 100 nM; in assay [4] (setting [6]) it was 100 to 1000 nM.
As to `C[C@H](Nc1nccc(-c2cncn2Cc2ccccc2)n1)c1cc2cc(Cl)ccc2[nH]c1=O` [Compound I-68], the IC50 is under 100 nM in assay [1], under 100 nM in assay [2], under 100 nM in assay [3] (setting [5]) and 100 to 1000 nM in assay [4] (setting [6]).
In the case of `COc1nc(N[C@@H](C)c2cc3cc(Cl)c(OCC4CC4)cc3[nH]c2=O)ncc1C#N` [Compound I-159, (S)-2-((1-(6-chloro-7-(Cyclopropylmethoxy)-2-oxo-1,2-dihydroquinolin-3-yl)ethyl)amino)-4-methoxypyrimidine-5-carbonitrile], the IC50 in assay [1], in assay [2], in assay [3] (setting [5]) and in assay [4] (setting [6]) was under 100 nM throughout.

For the origin of these results see patent US10280150B2 (FORMA TM2, Inc., priority 2014, dated 2019).
